The record followed here is US20060258729A1, “Antibacterial pyrazole carboxylic acid hydrazides” (priority 2002, published 2006).

Values after ≈ are worked out from the molar mass of the structure shown.

The target of experiment [1] is T1, B. subtilis pol IIIE (Bacillus subtilis, UniProt O34623).
T1 construct: made in house
Description: DNA polymerase assay, B. subtilis pol IIIE. It is filed as biochemical.

Experiment [2] deals with T1, B. subtilis pol IIIE. Description: DNA polymerase assay, B. subtilis pol IIIE. The experiment is classed as biochemical. This is another data set of the same source.
The test system of experiment [3] is Enterococcus faecalis strain 29212. In words: Inhibition of bacterial growth (MIC), Efcl. It is filed as cell-based. The following applies: 16 to 18 hours, 37° C., read-out: Minimum Inhibitory Concentration for Bacterial Growth, Efcl. The method in brief: (§1)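 Broth microdilution; inoculum 1×10^5 CFU/mL, LB or BHI; 11 two-fold dilutions, typically 80-0.078 μg/mL; 1% DMSO final; 37° C., shaken, 16-18 h; OD570 read-out. MIC = lowest concentration without growth.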

The next experiment has as its target T2, B. subtilis pol IIIC (Bacillus subtilis, UniProt P13267).
T2 construct: made in house
Description: DNA polymerase assay, B. subtilis pol IIIC. It is filed as biochemical.

The target in the next experiment is T3, E. coli pol IIIE (Escherichia coli, UniProt P10443).
T3 construct: purchased Enzyco, Denver, Colo
In words: DNA polymerase assay, E. coli pol IIIE. It is filed as biochemical. The following applies: 80 μg/mL (190-260 μM) final concentration; all four dNTPs. The gist of the method: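 Incorporation of 3H label into activated calf thymus DNA (0.4 mg/mL) from 10 μM of all four dNTPs, 10 min at 30 °C in pH 7.5 Tris/magnesium acetate, compounds in 1% DMSO. Reactions started with 0.025–0.06 units recombinant polymerase, stopped with cold TCA; IC50 and percent inhibition relative to DMSO control.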

Experiment [4] relates to vancomycin-resistant Enterococcus strain B42762. Description: Inhibition of bacterial growth (MIC), VRE. The experiment is classed as cell-based. The following applies: VRE, 16 to 18 hours, 37° C., read-out: Minimum Inhibitory Concentration for Bacterial Growth, VRE. The method in brief: as §1
In experiment [5] the test system is Bacillus subtilis strain BD54. Description: Inhibition of bacterial growth (MIC), Bs. It is filed as cell-based. The following applies: 16 to 18 hours, 37° C., read-out: Minimum Inhibitory Concentration for Bacterial Growth, Bs. The method in brief:
as §1

The subject of experiment [6] is Escherichia coli strain J53. Description: Inhibition of bacterial growth (MIC), Ec. The experiment is classed as cell-based. The following applies: 16 to 18 hours, 37° C., read-out: Minimum Inhibitory Concentration for Bacterial Growth, Ec. The gist of the method: as §1
For another experiment, the system named is S. aureus Smith strain. In words: Inhibition of bacterial growth (MIC), Sm. It is filed as cell-based, Staphylococcus aureus. The following applies: Staphylococcus aureus, 16 to 18 hours, 37° C., read-out: Minimum Inhibitory Concentration for Bacterial Growth, Sm. The gist of the method: as §1
The subject of experiment [7] is methicillin-resistant S. aureus strain 1094. Description: Inhibition of bacterial growth (MIC), MRSA. It is filed as cell-based, Staphylococcus aureus. The following applies: Staphylococcus aureus, MRSA, 16 to 18 hours, 37° C., read-out: Minimum Inhibitory Concentration for Bacterial Growth, MRSA. The method in brief:
as §1

T2 sequence (P13267 whole entry): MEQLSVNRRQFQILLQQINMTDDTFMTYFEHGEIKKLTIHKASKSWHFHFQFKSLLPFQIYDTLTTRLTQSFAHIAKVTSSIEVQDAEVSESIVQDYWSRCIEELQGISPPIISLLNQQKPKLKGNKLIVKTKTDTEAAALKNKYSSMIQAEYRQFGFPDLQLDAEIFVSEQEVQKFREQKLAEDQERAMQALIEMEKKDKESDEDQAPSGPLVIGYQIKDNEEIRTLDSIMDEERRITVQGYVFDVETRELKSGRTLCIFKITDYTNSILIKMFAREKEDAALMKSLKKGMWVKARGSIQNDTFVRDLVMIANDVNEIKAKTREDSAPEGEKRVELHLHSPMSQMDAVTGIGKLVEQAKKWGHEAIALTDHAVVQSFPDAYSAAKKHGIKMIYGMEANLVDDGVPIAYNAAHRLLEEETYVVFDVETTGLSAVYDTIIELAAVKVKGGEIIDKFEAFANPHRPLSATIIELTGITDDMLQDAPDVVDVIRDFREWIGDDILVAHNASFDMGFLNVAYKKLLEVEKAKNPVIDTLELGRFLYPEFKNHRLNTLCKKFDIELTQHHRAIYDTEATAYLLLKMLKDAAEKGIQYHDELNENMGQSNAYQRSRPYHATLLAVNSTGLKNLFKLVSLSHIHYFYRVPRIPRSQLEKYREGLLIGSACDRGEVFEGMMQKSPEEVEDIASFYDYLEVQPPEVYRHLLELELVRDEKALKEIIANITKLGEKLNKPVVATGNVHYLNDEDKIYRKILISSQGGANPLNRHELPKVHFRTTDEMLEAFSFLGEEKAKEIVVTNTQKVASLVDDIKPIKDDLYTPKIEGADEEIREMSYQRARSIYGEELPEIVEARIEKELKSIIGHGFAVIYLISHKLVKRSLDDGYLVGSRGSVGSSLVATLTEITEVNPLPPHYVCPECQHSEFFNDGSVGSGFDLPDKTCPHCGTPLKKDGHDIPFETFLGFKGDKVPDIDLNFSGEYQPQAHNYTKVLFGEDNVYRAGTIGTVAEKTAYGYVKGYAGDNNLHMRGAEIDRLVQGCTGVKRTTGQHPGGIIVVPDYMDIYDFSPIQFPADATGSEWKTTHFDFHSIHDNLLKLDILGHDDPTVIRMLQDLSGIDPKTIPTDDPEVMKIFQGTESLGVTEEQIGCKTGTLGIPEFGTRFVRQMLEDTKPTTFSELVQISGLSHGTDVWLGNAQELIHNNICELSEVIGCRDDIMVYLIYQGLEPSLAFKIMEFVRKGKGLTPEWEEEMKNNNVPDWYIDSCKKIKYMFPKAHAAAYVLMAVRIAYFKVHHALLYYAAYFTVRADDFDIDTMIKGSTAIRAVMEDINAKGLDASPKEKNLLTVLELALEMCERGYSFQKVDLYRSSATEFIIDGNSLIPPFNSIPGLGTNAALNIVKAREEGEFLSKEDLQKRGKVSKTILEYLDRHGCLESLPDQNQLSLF
T1 sequence (O34623 whole entry): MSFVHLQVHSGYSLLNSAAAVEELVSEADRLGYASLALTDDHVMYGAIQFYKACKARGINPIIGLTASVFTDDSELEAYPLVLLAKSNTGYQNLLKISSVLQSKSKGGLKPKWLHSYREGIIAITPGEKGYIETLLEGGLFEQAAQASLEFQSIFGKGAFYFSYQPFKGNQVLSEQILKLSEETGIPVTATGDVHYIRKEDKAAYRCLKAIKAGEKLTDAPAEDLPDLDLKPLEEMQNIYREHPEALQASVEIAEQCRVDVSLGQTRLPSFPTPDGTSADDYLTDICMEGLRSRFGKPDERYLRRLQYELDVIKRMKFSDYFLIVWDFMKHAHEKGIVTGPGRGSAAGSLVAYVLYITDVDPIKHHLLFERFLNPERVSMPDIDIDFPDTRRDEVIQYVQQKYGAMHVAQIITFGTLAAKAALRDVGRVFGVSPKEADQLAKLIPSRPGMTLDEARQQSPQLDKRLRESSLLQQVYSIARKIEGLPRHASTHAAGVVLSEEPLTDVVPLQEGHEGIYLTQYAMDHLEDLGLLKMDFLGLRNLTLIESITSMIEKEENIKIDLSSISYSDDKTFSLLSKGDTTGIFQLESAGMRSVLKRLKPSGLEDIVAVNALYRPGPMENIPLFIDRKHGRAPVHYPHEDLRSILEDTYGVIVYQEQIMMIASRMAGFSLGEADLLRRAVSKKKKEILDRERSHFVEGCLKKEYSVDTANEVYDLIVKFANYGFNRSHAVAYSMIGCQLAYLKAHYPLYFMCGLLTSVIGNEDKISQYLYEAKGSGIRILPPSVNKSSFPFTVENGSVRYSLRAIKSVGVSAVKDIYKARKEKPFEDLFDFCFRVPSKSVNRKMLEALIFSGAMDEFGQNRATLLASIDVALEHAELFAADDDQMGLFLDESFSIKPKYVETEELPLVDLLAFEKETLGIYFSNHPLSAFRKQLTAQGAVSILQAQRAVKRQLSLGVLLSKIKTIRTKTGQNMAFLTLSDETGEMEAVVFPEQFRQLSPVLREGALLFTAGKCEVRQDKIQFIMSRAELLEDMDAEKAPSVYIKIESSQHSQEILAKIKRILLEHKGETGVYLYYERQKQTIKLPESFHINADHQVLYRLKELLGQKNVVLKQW
T3 sequence (P10443 whole entry): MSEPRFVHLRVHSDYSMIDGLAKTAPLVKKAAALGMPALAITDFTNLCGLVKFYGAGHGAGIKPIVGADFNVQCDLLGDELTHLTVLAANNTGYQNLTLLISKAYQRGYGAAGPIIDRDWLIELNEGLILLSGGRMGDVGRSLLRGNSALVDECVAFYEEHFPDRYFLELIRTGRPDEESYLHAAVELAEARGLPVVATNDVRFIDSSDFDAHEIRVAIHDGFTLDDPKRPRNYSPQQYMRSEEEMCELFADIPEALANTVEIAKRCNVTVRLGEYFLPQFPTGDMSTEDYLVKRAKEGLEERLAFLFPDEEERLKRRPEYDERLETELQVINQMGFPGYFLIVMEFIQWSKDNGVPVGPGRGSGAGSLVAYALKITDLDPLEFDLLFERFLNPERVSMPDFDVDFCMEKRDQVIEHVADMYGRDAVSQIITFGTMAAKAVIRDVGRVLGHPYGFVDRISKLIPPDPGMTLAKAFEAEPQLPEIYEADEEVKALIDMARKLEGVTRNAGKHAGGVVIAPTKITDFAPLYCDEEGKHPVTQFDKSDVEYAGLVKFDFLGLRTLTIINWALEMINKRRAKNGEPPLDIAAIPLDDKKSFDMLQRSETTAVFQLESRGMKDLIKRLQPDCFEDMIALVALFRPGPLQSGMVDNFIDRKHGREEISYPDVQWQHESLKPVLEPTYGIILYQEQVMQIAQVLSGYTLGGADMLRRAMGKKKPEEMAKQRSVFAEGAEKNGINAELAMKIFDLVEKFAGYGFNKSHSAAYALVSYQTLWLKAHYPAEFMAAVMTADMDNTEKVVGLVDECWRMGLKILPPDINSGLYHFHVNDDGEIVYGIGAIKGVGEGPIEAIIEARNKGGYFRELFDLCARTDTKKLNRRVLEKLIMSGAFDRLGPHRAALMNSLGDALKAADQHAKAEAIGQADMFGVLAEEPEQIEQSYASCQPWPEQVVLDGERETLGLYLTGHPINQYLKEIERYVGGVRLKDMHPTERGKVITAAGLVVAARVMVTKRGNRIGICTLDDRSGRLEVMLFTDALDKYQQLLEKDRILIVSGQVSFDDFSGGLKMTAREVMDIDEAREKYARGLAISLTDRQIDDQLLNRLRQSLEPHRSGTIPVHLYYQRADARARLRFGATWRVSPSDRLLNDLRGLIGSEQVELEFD

For the molecule `COc1ccc(-c2cc(C(=O)NN=Cc3cc(OC)c(OC)c(OC)c3)[nH]n2)cc1` [Compound 17], the IC50 on B. subtilis pol IIIE [1] (B. subtilis Pol IIIE IC50, −dATP, in the absence of dATP) was more than 780 µM; against B. subtilis pol IIIE [1] (B. subtilis Pol IIIE IC50, −dCTP, in the absence of dCTP), more than 780 µM; against B. subtilis pol IIIE [1] (B. subtilis Pol IIIE IC50, −dGTP, in the absence of dGTP), more than 780 µM; on B. subtilis pol IIIE [2] (B. subtilis Pol IIIE IC50, 4 dNTPs, in the presence of all four dNTP substrates), more than 780 µM; on B. subtilis pol IIIC (B. subtilis Pol IIIC IC50, 4 dNTPs, in the presence of all four dNTP substrates) it was 36 µM; at B. subtilis pol IIIC (B. subtilis Pol IIIC IC50, −dATP, in the absence of dATP) it was 3.1 µM. The IC50 stood at 2.6 µM on B. subtilis pol IIIC (B. subtilis Pol IIIC IC50, −dCTP, in the absence of dCTP) and 1.8 µM at B. subtilis pol IIIC (B. subtilis Pol IIIC IC50, −dGTP, in the absence of dGTP). Further, the inhibition at 80 µg/mL at B. subtilis pol IIIE [2] (80 μg/mL (190-260 μM) final concentration, all four dNTPs, read-out: Percent Enzymatic Inhibition B. subtilis pol IIIE) is more than 20%. Besides, the MIC is 20 µg/mL (≈ 48.7 µM) in [3]; 5 µg/mL (≈ 12.2 µM) in [4]; 0.625 µg/mL (≈ 1.52 µM) in [5]; more than 80 µg/mL in experiment [6]; 2.5 µg/mL (≈ 6.09 µM) in the experiment with S. aureus Smith strain; 2.5 µg/mL (≈ 6.09 µM) in experiment [7]. Besides, on E. coli pol IIIE, the “Percent Enzymatic Inhibition E. coli pol IIIE” value is listed as “Inactive”.
